Values after ≈ are worked out from the molar mass of the structure shown.
Legend:
Format in all cases: cell-based
[1] = test system: Mycoplasma hyopneumoniae S-5972; assay: MIC, conventional broth-dilution microtiter test, Mycoplasma hyopneumoniae S-5972; details: Mesomycoplasma hyopneumoniae, S5972
Text: (§1) The MIC's in Table I were obtained using a conventional broth-dilution microtiter test.

[2] = test system: Mycoplasma gallisepticum 38502; assay: MIC, conventional broth-dilution microtiter test, Mycoplasma gallisepticum 38502 (tylosin-susceptible); details: Mycoplasmoides gallisepticum, Mycoplasma gallisepticum 38502, tylosin-susceptible strain
Text: as §1

[3] = test system: Mycoplasma synoviae 46995; assay: MIC, conventional broth-dilution microtiter test, Mycoplasma synoviae 46995; details: Mycoplasmopsis synoviae
Text: as §1

[4] = test system: Mycoplasma gallisepticum 34159; assay: MIC, conventional broth-dilution microtiter test, Mycoplasma gallisepticum 34159 (tylosin-resistant); details: Mycoplasmoides gallisepticum, Mycoplasma gallisepticum 34159, tylosin-resistant strain
Text: as §1

[5] = test system: Mycoplasma hyorhinis S-41313; assay: MIC, conventional broth-dilution microtiter test, Mycoplasma hyorhinis S-41313; details: S41313
Text: as §1

[6] = test system: Mycoplasma gallisepticum 41313; assay: MIC, conventional broth-dilution microtiter test, Mycoplasma gallisepticum 41313 (tylosin-resistant); details: Mycoplasmoides gallisepticum, Mycoplasma gallisepticum 41313, tylosin-resistant strain
Text: as §1

Row | SMILES | MIC [1] | MIC [2] | MIC [3] | MIC [4] | MIC [5] | MIC [6]
1 | CCCC(=O)OC1C(C)OC(OC2C(C)OC(OC3C(CC=O)CC(C)C(=O)C=CC(C)=CC(COC4OC(C)C(O)C(O)C4OC)C(CC)OC(=O)CC(OC(C)=O)C3C)C(O)C2N(C)C)CC1(C)O (stereo not shown) [3-Acetyl-4"-(n-Butyryl)-macrocin, 3-O-acetyl-4"-O-(n-butyryl)macrocin] | 0.048 µg/mL (≈ 0.0473 µM) | 0.195 µg/mL (≈ 0.192 µM) | ≤ 0.048 µg/mL | 6.25 µg/mL (≈ 6.16 µM) | 0.39 µg/mL (≈ 0.385 µM) | 3.12 µg/mL (≈ 3.08 µM)
2 | CCC1OC(=O)CC(OC(C)=O)C(C)C(OC2OC(C)C(OC3CC(C)(O)C(OC(=O)CC(C)C)C(C)O3)C(N(C)C)C2O)C(CC=O)CC(C)C(=O)C=CC(C)=CC1COC1OC(C)C(O)C(O)C1OC (stereo not shown) [3-Acetyl-4"-Isovaleryl-macrocin, 3-O-acetyl-4"-O-isovalerylmacrocin] | 0.048 µg/mL (≈ 0.0467 µM) | ≤ 0.048 µg/mL | ≤ 0.048 µg/mL | 3.12 µg/mL (≈ 3.03 µM) | 0.39 µg/mL (≈ 0.379 µM) | 3.12 µg/mL (≈ 3.03 µM)
3 | CCC1OC(=O)CC(OC(C)=O)C(C)C(OC2OC(C)C(O)C(N(C)C)C2O)C(CC=O)CC(C)C(=O)C=CC(C)=CC1COC1OC(C)C(O)C(O)C1OC (stereo not shown) [3-Acetyl-lactenocin, 3-O-Acetyllactenocin] |  | 0.78 µg/mL (≈ 0.975 µM) | 0.39 µg/mL (≈ 0.488 µM) | > 50 µg/mL | 25 µg/mL (≈ 31.3 µM) | 50 µg/mL (≈ 62.5 µM)
4 | CCC1OC(=O)CC(OC(C)=O)C(C)C(OC2OC(C)C(OC3CC(C)(O)C(O)C(C)O3)C(N(C)C)C2O)C(CC=O)CC(C)C(=O)C=CC(C)=CC1COC1OC(C)C(O)C(O)C1OC (stereo not shown) [3-Acetyl-macrocin, 3-O-Acetylmacrocin] |  | 0.78 µg/mL (≈ 0.826 µM) | 0.39 µg/mL (≈ 0.413 µM) | 50 µg/mL (≈ 53 µM) | 6.25 µg/mL (≈ 6.62 µM) | 50 µg/mL (≈ 53 µM)
